Values quoted from earlier work as cited in patent US8273362B2, “Ophthalmic emulsions containing prostaglandins” (Novagali Pharma S.A., priority 2004, dated 2012).

Conditions: not given

Solubility in water | Compound
almost insoluble in water | CCCCC[C@H](O)/C=C/[C@H]1[C@H](O)CC(=O)[C@H]1C/C=C\CCCC(=O)O [8-isoprostaglandinE2]
almost insoluble in water | CCNC(=O)CCC/C=C\C[C@@H]1[C@@H](/C=C/[C@@H](O)CCc2ccccc2)[C@H](O)C[C@@H]1O [Bimatoprost, bimatoprost]
almost insoluble in water | CC(C)OC(=O)CCC/C=C\C[C@@H]1[C@@H](CC[C@@H](O)CCc2ccccc2)[C@H](O)C[C@@H]1O [Latanoprost, latanoprost]
almost insoluble in water | CC(C)OC(=O)CCC/C=C\C[C@@H]1[C@@H](/C=C/[C@@H](O)COc2cccc(C(F)(F)F)c2)[C@H](O)C[C@@H]1O [Travoprost, travoprost]
almost insoluble in water | CC(C)OC(=O)CCC/C=C\C[C@@H]1[C@@H](/C=C/C(F)(F)COc2ccccc2)[C@H](O)C[C@@H]1O [tafluprost]
almost insoluble in water | CCCCCCCC(=O)CC[C@@H]1[C@@H](C/C=C\CCCC(=O)OC(C)C)[C@@H](O)C[C@H]1O [unoprostone isopropyl]

Conditions: ophthalmic preparations

Compound | Toxicity of long term use
benzalkonium chloride [BAK] | important toxicity

Conditions: at 0.3% w/v

Compound | Safety for ocular administration
CCCCCCCC/C=C\CCCCCCCCN [oleylamine] | safe
CCCCCCCCCCCCCCCCCCN [stearylamine] | safe
